5 compounds from US8729017B2 (priority 2011, dated 2014) can be followed below.

SMILES strings stand for the structures. Where two headings read alike, the source gives them in different places. Numbered stars: 1 amine (or outer) side, 2 acyl side, 3 side chain; on linkers, the order of the positions; unused ones are H or OH. Square brackets hold non-standard residues; d marks the D form. Side chains are listed from the residue outwards. Peptide text beside a SMILES is read from it. * marks the point of attachment. γGlu = O=C(O)[C@H](CCC(=O)[*:2])N[*:1]; Palmitoyl = CCCCCCCCCCCCCCCC(=O)*; Orn = NCCC[C@H](N)C(=O)O; Aib = CC(C)(N)C(=O)O

What all share (assay type): cell-based
One test addresses T1, glucagon receptor (Homo sapiens, UniProt P47871).
T1 construct: expressed in transfected cells; host or cells: HEK293
Description: cAMP induction, firefly luciferase reporter assay in HEK293 cells co-transfected with the glucagon receptor. As to the method:
(§1) The ability of each peptide to induce cAMP was measured in a firefly luciferase-based reporter assay. […] At the end of the incubation, 100 μL of LucLite luminescence substrate reagent (Perkin Elmer, Wellesley, Mass.) were added to each well. […] In some instances, the in vitro agonist activity at the GIP receptor was also tested.

The target in the next test is T2, GLP-1 receptor (Homo sapiens, UniProt P43220).
T2 construct: expressed in transfected cells; host or cells: HEK293
In words: cAMP induction, firefly luciferase reporter assay in HEK293 cells co-transfected with the GLP-1 receptor. As to the method:
as §1

A further test deals with T3, GIP receptor (Homo sapiens, UniProt P48546).
T3 construct: expressed in transfected cells; host or cells: HEK293
T3 sequence (P48546 22-466): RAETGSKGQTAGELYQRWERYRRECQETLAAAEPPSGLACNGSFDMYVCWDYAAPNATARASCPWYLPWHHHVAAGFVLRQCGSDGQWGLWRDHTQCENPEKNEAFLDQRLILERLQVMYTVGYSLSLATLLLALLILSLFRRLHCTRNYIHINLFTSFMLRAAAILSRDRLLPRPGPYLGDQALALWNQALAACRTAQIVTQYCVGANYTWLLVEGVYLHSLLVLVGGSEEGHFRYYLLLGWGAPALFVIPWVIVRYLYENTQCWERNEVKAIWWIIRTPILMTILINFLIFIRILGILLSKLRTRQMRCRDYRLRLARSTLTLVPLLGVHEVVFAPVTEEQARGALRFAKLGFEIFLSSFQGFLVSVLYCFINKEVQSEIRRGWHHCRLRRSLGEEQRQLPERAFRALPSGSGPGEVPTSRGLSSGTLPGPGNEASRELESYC
Description: in vitro agonist activity at the GIP receptor (cAMP luciferase reporter, HEK293 cells). As to the method: It is understood that a lower EC50 indicates higher activity or potency at the receptor. […] The ability of each peptide to induce cAMP was measured in a firefly luciferase-based reporter assay. […] At the end of the incubation, 100 μL of LucLite luminescence substrate reagent (Perkin Elmer, Wellesley, Mass.) were added to each well. […] In some instances, the in vitro agonist activity at the GIP receptor was also tested.

Setting [1] is: HEK293 cells, cAMP-responsive luciferase reporter, 5 hours incubation.
Setting [2] is: in vitro agonist activity, read-out: EC50 (nM) at GIP receptor.

T1 sequence (P47871 26-477, species assumed): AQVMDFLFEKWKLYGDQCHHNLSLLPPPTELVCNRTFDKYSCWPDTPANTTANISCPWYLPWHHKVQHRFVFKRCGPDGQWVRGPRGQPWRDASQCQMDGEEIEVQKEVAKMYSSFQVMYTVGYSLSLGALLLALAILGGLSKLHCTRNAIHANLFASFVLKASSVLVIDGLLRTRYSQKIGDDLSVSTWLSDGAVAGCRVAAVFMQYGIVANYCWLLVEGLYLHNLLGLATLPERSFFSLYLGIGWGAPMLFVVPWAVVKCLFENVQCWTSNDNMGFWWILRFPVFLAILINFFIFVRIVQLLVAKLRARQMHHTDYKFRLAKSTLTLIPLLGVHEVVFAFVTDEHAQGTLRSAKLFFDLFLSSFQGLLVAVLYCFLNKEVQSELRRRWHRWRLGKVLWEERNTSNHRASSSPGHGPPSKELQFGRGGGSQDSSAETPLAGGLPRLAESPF
T2 sequence (P43220 24-463): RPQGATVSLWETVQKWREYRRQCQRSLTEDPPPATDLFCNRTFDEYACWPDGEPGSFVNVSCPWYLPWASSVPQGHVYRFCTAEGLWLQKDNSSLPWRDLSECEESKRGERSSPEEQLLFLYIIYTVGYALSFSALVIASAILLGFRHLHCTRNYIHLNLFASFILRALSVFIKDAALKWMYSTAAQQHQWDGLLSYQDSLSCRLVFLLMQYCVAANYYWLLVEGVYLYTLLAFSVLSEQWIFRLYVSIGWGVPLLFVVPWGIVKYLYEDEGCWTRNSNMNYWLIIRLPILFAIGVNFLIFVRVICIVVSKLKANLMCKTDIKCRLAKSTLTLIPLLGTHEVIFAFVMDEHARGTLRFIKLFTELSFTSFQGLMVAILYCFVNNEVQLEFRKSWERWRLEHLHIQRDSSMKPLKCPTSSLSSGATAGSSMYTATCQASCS

For the compound `CCCCCCCCCCCCCCCC(=O)N[C@@H](CCC(=O)N[C@@H](CCC(=O)NCCCC[C@H](NC(=O)[C@H](CC(=O)O)NC(=O)[C@H](CO)NC(=O)[C@@H](NC(=O)[C@H](Cc1ccccc1)NC(=O)[C@@H](NC(=O)CNC(=O)[C@H](CCC(N)=O)NC(=O)C(C)(C)NC(=O)[C@@H](N)Cc1c[nH]cn1)[C@@H](C)O)[C@@H](C)O)C(=O)N[C@@H](CO)C(=O)N[C@@H](CCCCN)C(=O)N[C@@H](Cc1ccc(O)cc1)C(=O)N[C@@H](CC(C)C)C(=O)N[C@@H](CC(=O)O)C(=O)NC(C)(C)C(=O)N[C@@H](CCCNC(=N)N)C(=O)N[C@@H](C)C(=O)N[C@@H](C)C(=O)N[C@@H](CCC(N)=O)C(=O)N[C@@H](CC(=O)O)C(=O)N[C@@H](Cc1ccccc1)C(=O)N[C@H](C(=O)N[C@@H](CCC(N)=O)C(=O)N[C@@H](Cc1c[nH]c2ccccc12)C(=O)N[C@@H](CC(C)C)C(=O)N[C@@H](CCSC)C(=O)N[C@@H](CCCN)C(=O)N[C@H](C(=O)N[C@@H](CCCN)C(=O)N[C@@H](CCC(=O)O)C(=O)O)[C@@H](C)O)C(C)C)C(=O)O)C(=O)O` [compound 33] (H-H[Aib]QGTFTSDK([γGlu-γGlu-Palmitoyl])SKYLD[Aib]RAAQDFVQWLM[Orn]T[Orn]E-OH; N-terminus assumed), the EC50 on glucagon receptor (setting [1]) is 0.023 nM; at GLP-1 receptor (setting [1]), 0.019 nM; at GIP receptor (setting [2]), 3.96 nM.

`CCCCCCCCCCCCCCCC(=O)N[C@@H](CCC(=O)NCCCC[C@H](NC(=O)[C@H](CC(=O)O)NC(=O)[C@H](CO)NC(=O)[C@@H](NC(=O)[C@H](Cc1ccccc1)NC(=O)[C@@H](NC(=O)CNC(=O)[C@H](CCC(N)=O)NC(=O)[C@@H](CO)NC(=O)CCc1c[nH]cn1)[C@@H](C)O)[C@@H](C)O)C(=O)N[C@@H](CO)C(=O)N[C@@H](CCCCN)C(=O)N[C@@H](Cc1ccc(O)cc1)C(=O)N[C@@H](CC(C)C)C(=O)N[C@@H](CC(=O)O)C(=O)N[C@@H](CCC(=O)O)C(=O)N[C@@H](CCCNC(=N)N)C(=O)N[C@@H](C)C(=O)N[C@@H](C)C(=O)N[C@@H](CCC(N)=O)C(=O)N[C@@H](CC(=O)O)C(=O)N[C@@H](Cc1ccccc1)C(=O)N[C@H](C(=O)N[C@@H](CCC(N)=O)C(=O)N[C@@H](Cc1c[nH]c2ccccc12)C(=O)N[C@@H](CC(C)C)C(=O)N[C@@H](CC(C)C)C(=O)N[C@@H](CC(=O)O)C(=O)N[C@H](C(N)=O)[C@@H](C)O)C(C)C)C(=O)O` [compound 20]: the EC50 on glucagon receptor (setting [1]) was 0.006 nM; on GLP-1 receptor (setting [1]), 0.004 nM; at GIP receptor (setting [2]) it was 1.38 nM.

As to `CCCCCCCCCCCCCCCC(=O)N[C@@H](CCC(=O)NCCCC[C@H](NC(=O)[C@H](CC(=O)O)NC(=O)[C@H](CO)NC(=O)[C@@H](NC(=O)[C@H](Cc1ccccc1)NC(=O)[C@@H](NC(=O)CNC(=O)[C@H](CCC(N)=O)NC(=O)[C@@H](C)NC(=O)[C@@H](N)Cc1cnc[nH]1)[C@@H](C)O)[C@@H](C)O)C(=O)N[C@@H](CO)C(=O)N[C@@H](CCCCN)C(=O)N[C@@H](Cc1ccc(O)cc1)C(=O)N[C@@H](CC(C)C)C(=O)N[C@@H](CC(=O)O)C(=O)N[C@@H](CCC(=O)O)C(=O)N[C@@H](CCCNC(=N)N)C(=O)N[C@@H](C)C(=O)N[C@@H](C)C(=O)N[C@@H](CCC(N)=O)C(=O)N[C@@H](CC(=O)O)C(=O)N[C@@H](Cc1ccccc1)C(=O)N[C@H](C(=O)N[C@@H](CCC(N)=O)C(=O)N[C@@H](Cc1c[nH]c2ccccc12)C(=O)N[C@@H](CC(C)C)C(=O)N[C@@H](CC(C)C)C(=O)N[C@@H](CC(=O)O)C(=O)N[C@H](C(N)=O)[C@@H](C)O)C(C)C)C(=O)O` [compound 56], the half-maximal effective concentration (EC50) at glucagon receptor was 0.006 nM; at GLP-1 receptor, 0.02 nM; at GIP receptor it was 1.64 nM.

As to `CCCCCCCCCCCCCCCC(=O)N[C@@H](CCC(=O)NCCCC[C@H](NC(=O)[C@H](CC(=O)O)NC(=O)[C@H](CO)NC(=O)[C@@H](NC(=O)[C@H](Cc1ccccc1)NC(=O)[C@@H](NC(=O)CNC(=O)[C@H](CCC(N)=O)NC(=O)[C@@H](CO)NC(=O)[C@@H](N)Cc1c[nH]cn1)[C@@H](C)O)[C@@H](C)O)C(=O)N[C@@H](CO)C(=O)N[C@@H](CCCCN)C(=O)N[C@@H](Cc1ccc(O)cc1)C(=O)N[C@@H](CC(C)C)C(=O)N[C@@H](CC(=O)O)C(=O)N[C@@H](CCC(=O)O)C(=O)N[C@@H](CCCNC(=N)N)C(=O)N[C@@H](C)C(=O)N[C@@H](C)C(=O)N[C@@H](CCC(N)=O)C(=O)N[C@@H](CC(=O)O)C(=O)N[C@@H](Cc1ccccc1)C(=O)N[C@H](C(=O)N[C@@H](CCC(N)=O)C(=O)N[C@@H](Cc1c[nH]c2ccccc12)C(=O)N[C@@H](CC(C)C)C(=O)N[C@@H](CC(C)C)C(=O)N[C@@H](CC(=O)O)C(=O)NCC(=O)N[C@@H](CCCNC(=N)N)C(=O)N[C@@H](CCCCN)C(N)=O)C(C)C)C(=O)O` [compound 28], the EC50 at glucagon receptor (setting [1]) came to 0.015 nM; on GLP-1 receptor (setting [1]) it was 0.003 nM; on GIP receptor (setting [2]) it was 2.84 nM.

Consider `CCCCCCCCCCCCCCCC(=O)N[C@@H](CCC(=O)N[C@@H](CCC(=O)NCCCC[C@H](NC(=O)[C@H](CC(=O)O)NC(=O)[C@H](CO)NC(=O)[C@@H](NC(=O)[C@H](Cc1ccccc1)NC(=O)[C@@H](NC(=O)CNC(=O)[C@H](CCC(N)=O)NC(=O)C(C)(C)NC(=O)[C@@H](N)Cc1c[nH]cn1)[C@@H](C)O)[C@@H](C)O)C(=O)N[C@@H](CO)C(=O)N[C@@H](CCCCN)C(=O)N[C@@H](Cc1ccc(O)cc1)C(=O)N[C@@H](CC(C)C)C(=O)N[C@@H](CC(=O)O)C(=O)NC(C)(C)C(=O)N[C@@H](CCCNC(=N)N)C(=O)N[C@@H](C)C(=O)N[C@@H](C)C(=O)N[C@@H](CCC(N)=O)C(=O)N[C@@H](CC(=O)O)C(=O)N[C@@H](Cc1ccccc1)C(=O)N[C@H](C(=O)N[C@@H](CCC(N)=O)C(=O)N[C@@H](Cc1c[nH]c2ccccc12)C(=O)N[C@@H](CC(C)C)C(=O)N[C@@H](CC(C)C)C(=O)NC(C)(C)C(=O)NCC(=O)N[C@@H](CCCNC(=N)N)C(=O)NCC(N)=O)C(C)C)C(=O)O)C(=O)O` [compound 29] (H-H[Aib]QGTFTSDK([γGlu-γGlu-Palmitoyl])SKYLD[Aib]RAAQDFVQWLL[Aib]GRG-NH2), for which the EC50 at glucagon receptor (setting [1]) came to 0.014 nM; at GLP-1 receptor (setting [1]) it was 0.007 nM; at GIP receptor (setting [2]), 1.65 nM.
